Source: US5573772A, “Methods for protecting tissues and organs from ischemic damage” (priority 1994, dated 1996)

What was measured:
heart = conditions: cited from earlier work
isolated rabbit hearts [1] = assay: Dose-response of APNEA on infarct size in isolated rabbit hearts, Example 4 (Table A)
Protocol: New Zealand white rabbits of either sex, between 1.4-2.4 kg, were anesthetized with intravenous sodium pentobarbital (30 mg/kg). The neck was opened and a tracheotomy was performed. The rabbits were ventilated with 100% oxygen via a positive pressure respirator (MD industries, Mobile, Ala.). Ventilation rate was 30-35 breaths per minute, and tidal volume was approximately 15 ml. A left thoracotomy was performed in the fourth intercostal space and pericardium was opened to expose the heart. A 2-0 silk suture with an RB taper needle was passed around a branch of the left coronary artery, and the end of the silk were threaded through a small vinyl tube to form a snare. The heads were quickly excised and mounted on a Langendorff apparatus and perfused at constant pressure with Krebs buffer containing (in mM) 118.5 NaCl, 4.7 KCl, 1.2 MgSO4, 1.2 K2 PO4, 24.3 NaHCO3, 2.5 CaCl2 and 10 glucose. […] The temperature of the perfusate was maintained at 37° C. The perfusion pressure was kept at 75 mm Hg. Pacing electrodes were placed on the right atrium and all hearts were paced at 200 beats/minute with pulses of 5 volts and 4 msec duration to keep the heart rate constant. A fluid-filled latex balloon connected to a transducer via PE240 tubing was inserted into the left ventricle. Balloon volume was adjusted to set the left ventricular diastolic pressure at 10 mm Hg at the beginning of the experiment. Total coronary artery flow was measured by timed collection of buffer from the chamber into a graduated cylinder. Regional ischemia was effected by pulling the snare tight and clamping the tube with a hemostat. Global ischemia was performed by clamping the inflow tubing of the Langendorff apparatus. Reperfusion was achieved by releasing the restriction. All hearts were allowed to equilibrate for 20 minutes before the experiments were started. Heart rate (HR), coronary flow (CF) and left ventricular developed pressure (LVDP) were recorded at the point just before and at the end of each treatment with the pacing momentarily turned off.
For the group to be exposed to ischemia, the silk suture under the coronary branch was tightly tied to occlude the artery at the end of each experiment, and a 0.5% suspension of fluorescent particles (1-10 um diameter from Duke Scientific Corp., Palo Alto, Calif.) were infused into the perfusate to mark the risk zone as the non-fluorescent tissue. The hearts were removed from the Langendorff apparatus, weighed and then frozen. The hearts were cut into 2 mm transverse slices. The slices were thawed and incubated in 1% triphenyl tetrazolium chloride (TTC) in pH 7.4 buffer for 20 minutes at 37° C. TTC reacts with NADH and dehydrogenase enzymes and stains all tissue still having them to a deep red color. […] After staining, the area of infarcted tissue (TTC negative tissue) and the risk zone (area lacking fluorescence under ultraviolet light) in each slice were traced. The area of infarct and risk zone were determined by planimetry of the tracing. The volume of infarcted myocardium and myocardium at risk was then calculated by multiplying the planimetered areas by the slice thickness.
In this study, applicants examined the effects of varying the dosage of APNEA on myocardial infarct size in Langendorff buffer-perfused rabbit hearts subject to 30 minutes of regional ischemia and 2 hours reperfusion. The methods utilized in this example are identical to those described in Example 1.
Six groups of hearts were studied: control untreated hearts (n=10); APNEA 0.5 nM (n=6); APNEA 5 nM (n=6); APNEA 50 nM (n=6); APNEA 500 nM (n=6); and APNEA 500 nM+DPCPX 200 nM.(n=6) In all cases, APNEA (0.5-500 nM) was infused for 5 minutes, beginning 15 minutes prior to 30 minutes of ischemia. The regional ischemia was produced by occlusion of the coronary artery, followed by 120 minutes of reperfusion.

isolated rabbit hearts [2] = assay: Hemodynamic effects in non-ischemic, unpaced isolated rabbit hearts, Example 4; conditions: APNEA 500 nM
Protocol: In an additional group of 3 hearts that were not made ischemic, 500 nM APNEA was infused for 1 minute. This group of hearts was not paced to control heart rate, and the effects of APNEA on spontaneous heart rate and coronary flow were measured to determine the hemodynamic effects of APNEA.

[3] = test system: A3 adenosine receptor (R226); conditions: cited from earlier work
intact rabbit = assay: Bradycardia and mean arterial pressure in the anesthetized rabbit, Example 2; conditions: DPCPX 0.5 mg/kg IV
[4] = test system: intact, blood perfused rabbit heart; assay: Infarct size in the intact anesthetized rabbit, 30 min ischemia and reperfusion, Example 2
Protocol: In this study, the effect of the adenosine receptor agonist, I-APNEA, on infarct size in the anesthetized rabbit was compared to the protection observed with ischemic preconditioning (PC).
New Zealand White rabbits (1.5-2.5 kg) were anaesthetized with pentobarbital sodium (40 mg/kg) administered via a catheter in a marginal ear vein. The animals were intubated with a pediatric cuffed endotracheal tube and ventilated with room air using a positive pressure respirator (Harvard Apparatus, Natick, Mass.). The heart was exposed in situ via an incision between the left 4th and 5th ribs, and a branch of the left coronary artery was isolated, using a 3-0 silk suture on RB-taper needle, for later ligation to induce 30 minutes of ischemia followed by 180 minutes of reperfusion. A catheter inserted into a femoral vein was used for administration of fluids and drugs. Infarct size was measured using the method described in the section entitled "Measurement of Infarct Size and Risk Area" in Example 1.
All animals received 30 minutes of regional ischemia, induced by tightening the suture placed around the coronary artery. Following the 30 minutes of ischemia, the suture was loosened, and reperfusion was allowed for the ensuing 180 minutes. Control animals received only the 30 minutes of ischemia and 180 minutes of reperfusion (n=9). Ischemic preconditioning (PC) was induced by 5 minutes of occlusion of the coronary artery followed by 10 minutes of reperfusion before the 30 minutes of occlusion (n=7). In a separate group of rabbits, I-APNEA was delivered intravenously as a slow bolus injection (0.25 mg/kg), beginning 15 minutes prior to the 30 minutes occlusion (n=8). In two additional groups of rabbits, the effects of the A1-selective adenosine receptor blocker, DPCPX, were tested against the effects of PC (n=6) and I-APNEA (n=8). […] At the end of 120 minutes of reperfusion, all animals were killed by an overdose of pentobarbital, and risk area and infarct size were measured.

Nc1ncnc2c1ncn2[C@@H]1O[C@H](CO)[C@@H](O)[C@H]1O [ADO, Adenosine]
Sensation of anginal pain (heart; in vivo): mediator of the sensation of anginal pain
Hypotension (heart; intravenous injection at doses required for ischemic preconditioning): too much hypotension

Nc1ccc(CCNc2ncnc3c2ncn3[C@@H]2O[C@H](CO)[C@@H](O)[C@H]2O)cc1 [APNEA, N^6-(2-(4-aminophenyl)ethyl) adenosine]
Effect on infarct size compared to untreated control (isolated rabbit hearts [1]; APNEA 0.5 nM): no effect on infarct size
Infarct Area (isolated rabbit hearts [1]; APNEA 5 nM): 14 ± 3 % of Risk
Infarct Area (isolated rabbit hearts [1]; APNEA 50 nM): 14 ± 3 % of Risk
Infarct Area (isolated rabbit hearts [1]; APNEA 500 nM): 8 ± 1 % of Risk
Infarct Area (isolated rabbit hearts [1]; APNEA 500 nM + DPCPX 200 nM): 15 ± 5 % of Risk
Effect on infarct size (isolated rabbit hearts [1]; APNEA 5, 50, and 500 nM): reduced infarct size
Infarct Area (isolated rabbit hearts [1]; APNEA .5 nM, control 24 ± 1): 22 ± 5 % of Risk
Coronary flow after APNEA (isolated rabbit hearts [2]; 1 minute, before 50±9, 3 hearts): 58 ± 6 mL/min
Heart rate after APNEA (isolated rabbit hearts [2]; 1 minute, before 178±7, 3 hearts): 169±3 beats/min
Effect on heart rate or coronary flow (isolated rabbit hearts [2]; non-ischemic hearts): no effect on heart rate or coronary flow

CCCn1c(=O)c2[nH]c(C3CCCC3)nc2n(CCC)c1=O [DPCPX, 8-cyclopentyl-1,3-dipropylxanthine]
Blockade of APNEA's infarct size reduction (isolated rabbit hearts [1]; DPCPX 200 nM + APNEA 500 nM): not blocked
Binding to R226 [3]: not to bind
Effect on bradycardia associated with activation of the A1 adenosine receptor (intact rabbit): abolish
Effect on fall in mean arterial pressure with I-APNEA or R-PIA (intact rabbit; I-APNEA 0.25 mg/kg or R-PIA 1 mg/kg, iv): attenuated
Infarct size ([4]; DPCPX 0.5 mg/kg IV + I-APNEA 0.25 mg/kg): 28±8.0%
Infarct size ([4]; DPCPX 0.5 mg/kg IV + PC): 7±1.8%
